From US20060293216A1, “Pharmaceutical compositions comprising an active agent and chitosan for sustained drug release or mucoadhesion” (ADVANCED BIOPOLYMERS AS, priority 2003, published 2006)

Tests used:
Type in all cases: physicochemical
[1] = Effect of chitosan on availability of norfloxacin (dialysis, UV); conditions: norfloxacin 100 mg, against tris buffer pH 7
Method: Norfloxacin (100 mg) and chitosan (FA=0.35, η=1250) (250 mg) were added to a diluted aqueous HCl solution pH 2 (10 ml). The mixture was stirred for 2 hours at 80° C., cooled to room temperature and dialysed against tris buffer pH 7 (100 ml). The amount of norfloxacin in dialysate was determined by UV.
(§1) An experiment without chitosan was performed as a comparison.
The amounts of norfloxacin in dialysate are shown as a percentage of maximum detected amounts.

[2] = Release of warfarin from warfarin/chitosan (dialysis, UV 293 nm); conditions: buffered solution pH 7.4
Method: The salt of warfarin/chitosan (from Example 7 above) (1.09 g) was suspended in a buffered solution with pH 7.4 (10 ml). The suspension was transferred into the dialysis tube (cut off 12-14 kDa) before the tube was transferred into a buffered solution of pH 7.4 (100 ml) under continuous stirring. 2 ml samples of the dialysate were taken at different times and the UV-absorbances measured with an UV-apparatus at 293 nm. As a control experiment, warfarin (0.38 g, 1.2 mmol) was dissolved in a buffered solution of pH 7.4 (10 ml) and transferred into the dialysis tube (cut off 12-14 kDa). 2 ml samples of the dialysate were taken at different times and the UV-absorbances measured with an UV-apparatus at 293 nm. The amounts of warfarin in dialysate are shown in Table 3 as a percentage of maximum detected amounts.

[3] = Release of paracetamol through a dialysis membrane with and without chitosan; conditions: 10 mM paracetamol in 154 mM NaCl, pH 4.5; 3 (w/v)% chitosan (FA 0.41, hydrochloride salt); followed for 2 days; FIG. 1
Method: The chitosan used in this Example was prepared from a chitosan produced as described in WO 03/011912 (FA 0.41, [η]=1060 ml/g), which was depolymerized and at the same time converted to the chitosan hydrochloride salt using 3M ethanolic HCl. Excess ethanolic chitosan was removed, the chitosan washed with excess 70% ethanol, 96% ethanol and finally dried to obtain the chitosan hydrochloride salt. The intrinsic viscosity was determined to 200 ml/g, corresponding to a number-average molecular weight of 40 000 (Anthonsen et al., 1993, Carbohydr. Polym. (1993) 22 193-201). 10 mM Paracetamol was dissolved in 154 mM NaCl at pH 4.5. Each of the solutions containing salicylate or paracetamol was added to a small glass vial (10 ml) equipped with a dialysis membrane (d=14.3 mm, cut off 10-12 kDa). The glass vials were placed in a 1 litre reservoir containing 154 mM NaCl, pH 4.5. Samples of 3.0 ml were regularly withdrawn from the reservoir and the absorbance was measured at 297.0 nm (salicylic acid) and 243.3 nm (paracetamol). Each experiment was run with 6 parallels. The same experiment was performed with paracetamol and the salicylate solutions to which had been added 3 (w/v)% of the chitosan. […] No difference in the release profile of the neutral drug paracetamol with and without chitosan could be detected.

[4] = Release of acetylsalicylic acid from chitosan (dialysis, UV); conditions: acetylsalicylic acid 100 mg, chitosan 250 mg, against tris buffer pH7
Method: Acetylsalicylic acid (100 mg) and chitosan (various degrees of acetylation) (250 mg) were added to a diluted aqueous HCl solution at pH 2 (10 ml). The mixture was stirred for 30 minutes at 80° C., cooled to room temperature, transferred to a dialysis tube (cut off 12-14 kDa) and dialysed against tris buffer pH7 (100 ml). The amount of acetylsalicylic acid in the dialysate was determined by UV.
as §1
The amounts of acetylsalicylic acid in dialysate are shown in Table 1 as a percentage of maximum detected amounts.

[5] = Release of salicylate through a dialysis membrane with and without chitosan; conditions: 30 mM salicylate in 154 mM NaCl, pH 4.5; 3 (w/v)% chitosan (FA 0.41, hydrochloride salt); FIG. 2
Method: The chitosan used in this Example was prepared from a chitosan produced as described in WO 03/011912 (FA 0.41, [η]=1060 ml/g), which was depolymerized and at the same time converted to the chitosan hydrochloride salt using 3M ethanolic HCl. Excess ethanolic chitosan was removed, the chitosan washed with excess 70% ethanol, 96% ethanol and finally dried to obtain the chitosan hydrochloride salt. The intrinsic viscosity was determined to 200 ml/g, corresponding to a number-average molecular weight of 40 000 (Anthonsen et al., 1993, Carbohydr. Polym. (1993) 22 193-201). 30 mM Salicylic acid was dissolved in distilled water upon addition of equimolar amounts of sodium hydroxide, and sodium chloride was added to a final concentration of 154 mM. The pH was adjusted to 4.5. Each of the solutions containing salicylate or paracetamol was added to a small glass vial (10 ml) equipped with a dialysis membrane (d=14.3 mm, cut off 10-12 kDa). The glass vials were placed in a 1 litre reservoir containing 154 mM NaCl, pH 4.5. Samples of 3.0 ml were regularly withdrawn from the reservoir and the absorbance was measured at 297.0 nm (salicylic acid) and 243.3 nm (paracetamol). Each experiment was run with 6 parallels. The same experiment was performed with paracetamol and the salicylate solutions to which had been added 3 (w/v)% of the chitosan. […]

Structure (SMILES): CCn1cc(C(=O)O)c(=O)c2cc(F)c(N3CCNCC3)cc21 [Without chitosan, Norfloxacin]
- amount of norfloxacin in dialysate ([1]; time for dialysis 0.25 hours): 66 percentage of maximum detected amounts
- amount of norfloxacin in dialysate ([1]; time for dialysis 0.5 hours): 72 percentage of maximum detected amounts
- amount of norfloxacin in dialysate ([1]; time for dialysis 1 hour): 100 percentage of maximum detected amounts
- amount of norfloxacin in dialysate ([1]; time for dialysis 2 hours): 100 percentage of maximum detected amounts
- amount of norfloxacin in dialysate ([1]; time for dialysis 4 hours): 100 percentage of maximum detected amounts

Structure (SMILES): CC(=O)CC(c1ccccc1)c1c(O)c2ccccc2oc1=O (stereo not shown) [Warfarin]
- amount of warfarin in dialysate ([2]; time 2½ hours): 49.8 percentage of maximum detected amounts
- amount of warfarin in dialysate ([2]; time 4 hours): 49.0 percentage of maximum detected amounts
- amount of warfarin in dialysate ([2]; time 20 hours): 100 percentage of maximum detected amounts
- amount of warfarin in dialysate ([2]; time ½ hours): 14.8 percentage of maximum detected amounts

Structure (SMILES): CC(=O)Nc1ccc(O)cc1 [paracetamol, Paracetamol]
- release profile of paracetamol with and without chitosan [3]: No difference

Structure (SMILES): CC(=O)Oc1ccccc1C(=O)O [No chitosan, Acetylsalicylic acid]
- amount of acetylsalicylic acid in dialysate ([4]; time for dialysis 0.25 hours): 52 percentage of maximum detected amounts
- amount of acetylsalicylic acid in dialysate ([4]; time for dialysis 0.5 hours): 87 percentage of maximum detected amounts
- amount of acetylsalicylic acid in dialysate ([4]; time for dialysis 1 hour): 97 percentage of maximum detected amounts
- amount of acetylsalicylic acid in dialysate ([4]; time for dialysis 2 hours): 98 percentage of maximum detected amounts
- amount of acetylsalicylic acid in dialysate ([4]; time for dialysis 19 hours): 99 percentage of maximum detected amounts

Structure (SMILES): O=C(O)c1ccccc1O [salicylate, Salicylic acid]
- release of salicylate with and without chitosan [5]: clear difference
